biological target: T1, alpha2A receptor (Homo sapiens, UniProt P08913); experiment: Receptor Selection and Amplification Technology (RSAT) assay, alpha2A; assay type: cell-based; conditions: RSAT, transfected NIH-3T3 cells with Gq/i5; not active = not active at concentrations less than 10 micromolar
T1 construct: expressed in transfected cells; host or cells: NIH-3T3 cells
T1 sequence (P08913 1-465): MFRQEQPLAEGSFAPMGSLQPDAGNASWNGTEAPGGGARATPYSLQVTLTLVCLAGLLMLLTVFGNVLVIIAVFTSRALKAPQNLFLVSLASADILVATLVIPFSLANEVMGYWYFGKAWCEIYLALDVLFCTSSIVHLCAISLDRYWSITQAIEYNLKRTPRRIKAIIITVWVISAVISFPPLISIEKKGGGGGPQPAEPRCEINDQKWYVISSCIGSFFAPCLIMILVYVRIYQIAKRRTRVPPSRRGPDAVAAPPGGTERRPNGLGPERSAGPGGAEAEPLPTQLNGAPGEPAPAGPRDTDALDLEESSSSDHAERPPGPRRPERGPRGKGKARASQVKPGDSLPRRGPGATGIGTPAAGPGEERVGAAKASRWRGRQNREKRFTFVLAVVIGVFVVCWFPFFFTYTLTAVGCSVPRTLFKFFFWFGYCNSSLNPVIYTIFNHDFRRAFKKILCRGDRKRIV
Protocol: (§1) The RSAT assay measures a receptor-mediated loss of contact inhibition that results in selective proliferation of receptor-containing cells in a mixed population of confluent cells. The increase in cell number is assessed with an appropriate transfected marker gene such as […]-galactosidase, the activity of which can be easily measured in a 96-well format. Receptors that activate the G protein, Gq, elicit this response. Alpha2 receptors, which normally couple to Gi, activate the RSAT response when coexpressed with a hybrid Gq protein that has a Gi receptor recognition domain, called Gq/i5.
(§2) NIH-3T3 cells are plated at a density of 2×10^6 cells in 15 cm dishes and maintained in Dulbecco's modified Eagle's medium supplemented with 10% calf serum. One day later, cells are cotransfected by calcium phosphate precipitation with mammalian expression plasmids encoding p-SV-[…]-galactosidase (5-10 μg), receptor (1-2 μg) and G protein (1-2 μg). 40 μg salmon sperm DNA may also be included in the transfection mixture. Fresh media is added on the following day and 1-2 days later, cells are harvested and frozen in 50 assay aliquots. Cells are thawed and 100 μl added to 100 μl aliquots of various concentrations of drugs in triplicate in 96-well dishes. Incubations continue 72-96 hr at 37° C. After washing with phosphate-buffered saline, […]-galactosidase enzyme activity is determined by adding 200 μl of the chromogenic substrate (consisting of 3.5 mM o-nitrophenyl-[…]-D-galactopyranoside and 0.5% nonidet P-40 in phosphate buffered saline), incubating overnight at 30° C. and measuring optical density at 420 nm. The absorbance is a measure of enzyme activity, which depends on cell number and reflects a receptor-mediated cell proliferation. The efficacy or intrinsic activity is calculated as a ratio of the maximal effect of the drug to the maximal effect of a standard full agonist for each receptor subtype. Brimonidine, also called UK14304, the chemical structure of which is shown below, is used as the standard agonist for the alpha2A, alpha2B and alpha2C receptors. The EC50 is the concentration at which the drug effect is half of its maximal effect.
(§3) The results of the RSAT assay with several exemplary compounds of the invention are disclosed in Table 1 above together with the chemical formulas of these exemplary compounds. EC50 values are nanomolar. NA stands for “not active” at concentrations less than 10 micromolar. IA stands for “intrinsic activity.”

Structure (SMILES)	Alpha 2A EC50
N#C/N=C(/NCCF)NCc1cccc(Br)c1	not active
N#C/N=C(/NCCF)NC1Cc2ccccc2C1	not active
N#C/N=C(/NCCF)NCc1cccc2c1OCC2	not active
Cc1cccc2c1CCC2N/C(=N\C#N)NCCF (centres unmarked)	not active
N#C/N=C(/NCCF)NC1CCc2ccccc21 (centres unmarked)	not active
N#C/N=C(/NCCF)NC1CCc2c(Br)cccc21 (centres unmarked)	not active
N#C/N=C(/NCCF)N[C@H]1CCc2ccccc21	not active
N#C/N=C(/NCCF)NC1CCc2c(Cl)cccc21 (centres unmarked)	not active
N#C/N=C(/NCCF)NC1CCc2c(F)cccc21 (centres unmarked)	not active
Cc1cccc(CN/C(=N/C#N)NCCF)c1Cl	not active
N#C/N=C(\NCCF)NC1CCc2ccc(F)cc21 (centres unmarked)	not active
N#C/N=C(\NCCF)NC1CCc2ccc(Cl)cc21 (centres unmarked)	not active
Cc1ccc2c(c1)C(N/C(=N\C#N)NCCF)CC2 (centres unmarked)	not active
Cc1cccc2c1CCCC2N/C(=N\C#N)NCCF (centres unmarked)	not active
N#C/N=C(/NCCF)NC1CCCc2c(Cl)cccc21 (centres unmarked)	not active
CCc1cccc2c1CCCC2N/C(=N\C#N)NCCF (centres unmarked)	not active
N#C/N=C(/NCCF)NC1CCCc2c(F)cccc21 (centres unmarked)	not active
CCc1cccc2c1CCC2N/C(=N\C#N)NCCF (centres unmarked)	not active
N#C/N=C(/NCCF)NC1CCc2cccc(Br)c21 (centres unmarked)	not active
N#C/N=C(\NCCF)NC1CCc2cccc(F)c21 (centres unmarked)	not active
N#C/N=C(\NCCF)NC1CCc2cccc(Cl)c21 (centres unmarked)	not active
N#C/N=C(\NCCF)NC1CCc2ccc(F)c(F)c21 (centres unmarked)	not active
N#C/N=C(\NCCF)NC(Cc1ccccc1)c1ccccc1 (centres unmarked)	not active

biological target: T2, alpha2C receptor (Homo sapiens, UniProt P18825); experiment: Receptor Selection and Amplification Technology (RSAT) assay, alpha2C; assay type: cell-based; conditions: RSAT, transfected NIH-3T3 cells with Gq/i5; not active = not active at concentrations less than 10 micromolar
T2 construct: expressed in transfected cells; host or cells: NIH-3T3 cells
T2 sequence (P18825 1-462): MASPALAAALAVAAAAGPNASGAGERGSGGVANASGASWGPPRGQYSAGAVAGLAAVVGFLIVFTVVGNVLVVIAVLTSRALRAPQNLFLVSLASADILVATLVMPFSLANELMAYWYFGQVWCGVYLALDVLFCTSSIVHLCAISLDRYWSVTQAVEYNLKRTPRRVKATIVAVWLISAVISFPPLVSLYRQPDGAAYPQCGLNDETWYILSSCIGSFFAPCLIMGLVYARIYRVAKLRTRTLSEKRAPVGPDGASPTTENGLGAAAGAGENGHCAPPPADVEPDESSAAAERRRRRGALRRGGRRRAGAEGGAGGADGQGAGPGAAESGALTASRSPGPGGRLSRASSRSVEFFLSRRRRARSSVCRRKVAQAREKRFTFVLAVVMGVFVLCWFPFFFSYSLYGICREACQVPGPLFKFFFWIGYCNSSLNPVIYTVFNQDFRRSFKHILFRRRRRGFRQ
Protocol: as §1, §2, §3

Structure (SMILES)	Alpha 2C EC50
N#C/N=C(/NCCF)NC1Cc2ccccc2C1	not active
N#C/N=C(/NCCF)NC1CCc2c(Br)cccc21 (centres unmarked)	not active
N#C/N=C(/NCCF)N[C@H]1CCc2ccccc21	not active
N#C/N=C(/NCCF)NC1CCc2c(Cl)cccc21 (centres unmarked)	not active
N#C/N=C(/NCCF)NC1CCc2c(F)cccc21 (centres unmarked)	not active
Cc1ccc2c(c1)C(N/C(=N\C#N)NCCF)CC2 (centres unmarked)	not active
N#C/N=C(/NCCF)NC1CCCc2c(Cl)cccc21 (centres unmarked)	not active
CCc1cccc2c1CCCC2N/C(=N\C#N)NCCF (centres unmarked)	not active
CCc1cccc2c1CCC2N/C(=N\C#N)NCCF (centres unmarked)	not active
N#C/N=C(/NCCF)NC1CCc2cccc(Br)c21 (centres unmarked)	not active
N#C/N=C(\NCCF)NC1CCc2cccc(F)c21 (centres unmarked)	not active
N#C/N=C(\NCCF)NC1CCc2cccc(Cl)c21 (centres unmarked)	not active
N#C/N=C(\NCCF)NC1CCc2ccc(F)c(F)c21 (centres unmarked)	not active
N#C/N=C(\NCCF)NC(Cc1ccccc1)c1ccccc1 (centres unmarked)	not active

same assay, conditions: RSAT, transfected NIH-3T3 cells with Gq/i5; not active = not active at concentrations less than 10 micromolar; read-out: Alpha 2C EC50

Structure (SMILES)	EC50 [nM]
N#C/N=C(/NCCF)NCc1cccc(Br)c1	2640
N#C/N=C(/NCCF)NCc1cccc2c1OCC2	358
Cc1cccc2c1CCC2N/C(=N\C#N)NCCF (centres unmarked)	914
N#C/N=C(/NCCF)NC1CCc2ccccc21 (centres unmarked)	1780
Cc1cccc(CN/C(=N/C#N)NCCF)c1Cl	472
N#C/N=C(\NCCF)NC1CCc2ccc(F)cc21 (centres unmarked)	376
N#C/N=C(\NCCF)NC1CCc2ccc(Cl)cc21 (centres unmarked)	946
Cc1cccc2c1CCCC2N/C(=N\C#N)NCCF (centres unmarked)	1480
N#C/N=C(/NCCF)NC1CCCc2c(F)cccc21 (centres unmarked)	1970

same assay, conditions: ratio of maximal effect of drug to maximal effect of standard full agonist brimonidine (UK14304)

Structure (SMILES)	Alpha 2C IA (intrinsic activity)
N#C/N=C(/NCCF)NCc1cccc(Br)c1	0.32
N#C/N=C(/NCCF)NCc1cccc2c1OCC2	0.58
Cc1cccc2c1CCC2N/C(=N\C#N)NCCF (centres unmarked)	0.51
N#C/N=C(/NCCF)NC1CCc2ccccc21 (centres unmarked)	0.33
Cc1cccc(CN/C(=N/C#N)NCCF)c1Cl	0.84
N#C/N=C(\NCCF)NC1CCc2ccc(F)cc21 (centres unmarked)	0.4
N#C/N=C(\NCCF)NC1CCc2ccc(Cl)cc21 (centres unmarked)	0.36
Cc1cccc2c1CCCC2N/C(=N\C#N)NCCF (centres unmarked)	0.41
N#C/N=C(/NCCF)NC1CCCc2c(F)cccc21 (centres unmarked)	0.42

biological target: T3, alpha2B receptor (Homo sapiens, UniProt P18089); experiment: Receptor Selection and Amplification Technology (RSAT) assay, alpha2B; assay type: cell-based; conditions: RSAT, transfected NIH-3T3 cells with Gq/i5; not active = not active at concentrations less than 10 micromolar
T3 construct: expressed in transfected cells; host or cells: NIH-3T3 cells
T3 sequence (P18089 1-450): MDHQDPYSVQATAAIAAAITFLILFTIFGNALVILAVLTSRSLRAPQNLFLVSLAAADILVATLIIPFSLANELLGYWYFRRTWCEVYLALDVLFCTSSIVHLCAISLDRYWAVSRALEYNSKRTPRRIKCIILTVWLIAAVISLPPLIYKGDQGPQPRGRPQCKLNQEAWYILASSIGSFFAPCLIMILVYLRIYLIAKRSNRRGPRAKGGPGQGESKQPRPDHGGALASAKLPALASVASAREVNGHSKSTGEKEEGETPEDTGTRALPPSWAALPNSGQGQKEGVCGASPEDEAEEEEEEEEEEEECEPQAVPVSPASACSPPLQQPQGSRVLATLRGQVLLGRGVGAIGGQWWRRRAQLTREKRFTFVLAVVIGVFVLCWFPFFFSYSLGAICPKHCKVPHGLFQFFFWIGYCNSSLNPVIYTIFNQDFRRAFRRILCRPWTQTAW
Protocol: as §1, §2, §3

Structure (SMILES)	Alpha 2B EC50
CCc1cccc2c1CCCC2N/C(=N\C#N)NCCF (centres unmarked)	high

same assay, conditions: RSAT, transfected NIH-3T3 cells with Gq/i5; not active = not active at concentrations less than 10 micromolar; read-out: Alpha 2B EC50

Structure (SMILES)	EC50 [nM]
N#C/N=C(/NCCF)NCc1cccc(Br)c1	1450
N#C/N=C(/NCCF)NC1Cc2ccccc2C1	783
N#C/N=C(/NCCF)NCc1cccc2c1OCC2	341
Cc1cccc2c1CCC2N/C(=N\C#N)NCCF (centres unmarked)	73.9
N#C/N=C(/NCCF)NC1CCc2ccccc21 (centres unmarked)	417
N#C/N=C(/NCCF)NC1CCc2c(Br)cccc21 (centres unmarked)	2570
N#C/N=C(/NCCF)N[C@H]1CCc2ccccc21	176
N#C/N=C(/NCCF)NC1CCc2c(Cl)cccc21 (centres unmarked)	988
N#C/N=C(/NCCF)NC1CCc2c(F)cccc21 (centres unmarked)	282
Cc1cccc(CN/C(=N/C#N)NCCF)c1Cl	78.9
N#C/N=C(\NCCF)NC1CCc2ccc(F)cc21 (centres unmarked)	167
N#C/N=C(\NCCF)NC1CCc2ccc(Cl)cc21 (centres unmarked)	232
Cc1ccc2c(c1)C(N/C(=N\C#N)NCCF)CC2 (centres unmarked)	518
Cc1cccc2c1CCCC2N/C(=N\C#N)NCCF (centres unmarked)	94.3
N#C/N=C(/NCCF)NC1CCCc2c(Cl)cccc21 (centres unmarked)	296
N#C/N=C(/NCCF)NC1CCCc2c(F)cccc21 (centres unmarked)	231
CCc1cccc2c1CCC2N/C(=N\C#N)NCCF (centres unmarked)	1040
N#C/N=C(/NCCF)NC1CCc2cccc(Br)c21 (centres unmarked)	941
N#C/N=C(\NCCF)NC1CCc2cccc(F)c21 (centres unmarked)	475
N#C/N=C(\NCCF)NC1CCc2cccc(Cl)c21 (centres unmarked)	642
N#C/N=C(\NCCF)NC1CCc2ccc(F)c(F)c21 (centres unmarked)	560
N#C/N=C(\NCCF)NC(Cc1ccccc1)c1ccccc1 (centres unmarked)	98.6

same assay, conditions: ratio of maximal effect of drug to maximal effect of standard full agonist brimonidine (UK14304)

Structure (SMILES)	Alpha 2B IA (intrinsic activity)
N#C/N=C(/NCCF)NCc1cccc(Br)c1	0.82
N#C/N=C(/NCCF)NC1Cc2ccccc2C1	0.35
N#C/N=C(/NCCF)NCc1cccc2c1OCC2	0.87
Cc1cccc2c1CCC2N/C(=N\C#N)NCCF (centres unmarked)	0.95
N#C/N=C(/NCCF)NC1CCc2ccccc21 (centres unmarked)	0.47
N#C/N=C(/NCCF)NC1CCc2c(Br)cccc21 (centres unmarked)	0.74
N#C/N=C(/NCCF)N[C@H]1CCc2ccccc21	0.92
N#C/N=C(/NCCF)NC1CCc2c(Cl)cccc21 (centres unmarked)	0.3
N#C/N=C(/NCCF)NC1CCc2c(F)cccc21 (centres unmarked)	0.36
Cc1cccc(CN/C(=N/C#N)NCCF)c1Cl	0.93
N#C/N=C(\NCCF)NC1CCc2ccc(F)cc21 (centres unmarked)	0.42
N#C/N=C(\NCCF)NC1CCc2ccc(Cl)cc21 (centres unmarked)	0.31
Cc1ccc2c(c1)C(N/C(=N\C#N)NCCF)CC2 (centres unmarked)	0.34
Cc1cccc2c1CCCC2N/C(=N\C#N)NCCF (centres unmarked)	1.06
N#C/N=C(/NCCF)NC1CCCc2c(Cl)cccc21 (centres unmarked)	0.37
CCc1cccc2c1CCCC2N/C(=N\C#N)NCCF (centres unmarked)	0.35
N#C/N=C(/NCCF)NC1CCCc2c(F)cccc21 (centres unmarked)	0.69
CCc1cccc2c1CCC2N/C(=N\C#N)NCCF (centres unmarked)	0.59
N#C/N=C(/NCCF)NC1CCc2cccc(Br)c21 (centres unmarked)	0.85
N#C/N=C(\NCCF)NC1CCc2cccc(F)c21 (centres unmarked)	0.65
N#C/N=C(\NCCF)NC1CCc2cccc(Cl)c21 (centres unmarked)	0.7
N#C/N=C(\NCCF)NC1CCc2ccc(F)c(F)c21 (centres unmarked)	0.5
N#C/N=C(\NCCF)NC(Cc1ccccc1)c1ccccc1 (centres unmarked)	0.73

From patent publication US7884244B2, “Therapeutic fluoroethylcyano guanidines” (Allergan, Inc., priority 2007, dated 2011)
